According to ChEMBL document CHEMBL3886430, “Heterocyclic derivative and pharmaceutical drug” (2015):

Target: T1, Prostaglandin E synthase (Homo sapiens, UniProt O14684)
T1 sequence (O14684 whole entry): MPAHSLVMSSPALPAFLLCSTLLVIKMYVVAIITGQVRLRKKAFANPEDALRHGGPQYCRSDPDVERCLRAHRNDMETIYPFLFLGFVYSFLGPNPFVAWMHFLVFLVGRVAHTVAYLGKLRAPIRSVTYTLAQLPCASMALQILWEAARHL
Test: Inhibition Assay: mPGES-1 microsome fractions were prepared from CHO-K1 cells transiently transfected with plasmid encoding the human mPGES-1cDNA. Microsomes were diluted with potassium phosphate buffer containing reduced glutathione (pH7.4), and DMSO containing test compound or DMSO alone was added (such that DMSO final concentration would be 1% in each) and incubated at 4° C. for 20 minutes. Then, the enzymatic reactions were initiated by the addition of PGH2 substrate (final concentration 1 μM) and incubated at 4° C. for 60 seconds. The reaction was terminated by the addition of a citrate solution (final citrate concentration 50 mM) containing ferric chloride (final concentration 1 mg/mL). PGE2 production in the enzyme reaction aliquot was measured using HTRF kit (Cisbio International, catalogue #62P2APEC).
Format: cell-based

- IC50: 0.0127 µM
SMILES: O=C(Nc1cc(C(=O)NCc2ccccc2C(F)(F)F)c2nc[nH]c2c1)c1ccccc1C(F)(F)F
